Data set [1] is described as follows: Initial pH screening of the composition. The following applies: for I pH (initial pH), 0.10%: nitrogen compound 0.10 wt/vol % with 1.0 wt/vol % α methyl-D glucoside in medium; for I pH (initial pH), 0.50%: nitrogen compound 0.50 wt/vol % with 1.0 wt/vol % α methyl-D glucoside in medium. The data set is classed as physicochemical. Put shortly:
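Compounds were added to LAPT-g medium (pH adjusted to 6.5) at a final 0.1-1.0%. Solubility was judged visually by precipitate or turbidity, and insoluble compositions got no pH measurement. Initial pH was scored Low (<5.5), High (>6.5) or Pass (5.5-6.5), and only soluble Pass compositions went on to efficacy testing.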

In data set [2] the test system is L. crispatus and E. coli. Kind of data set: Therapeutic Effect Protocol: L. crispatus / E. coli co-culture, ratio after 36 hours. It counts as cell-based, Lactobacillus crispatus; E. coli. The conditions noted are these: for Therapeutic Efficacy Results (Lactobacillus/E. coli) 0.10%: nitrogen compound 0.10 wt/vol % with 1.0 wt/vol % α methyl-D glucoside (10:1); for Therapeutic Efficacy Results (Lactobacillus/E. coli) 0.50%: nitrogen compound 0.50 wt/vol % with 1.0 wt/vol % α methyl-D glucoside (2:1); for Therapeutic effect when ratio α methyl-D glucoside : nitrogen compound is at least about 2:1, but not at 1:1: ratio at least about 2:1, not 1:1. In short, it runs like this:
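L. crispatus and E. coli were mixed 1,000:1 (10^5-10^6 and 100-1,000 CFU per 5 mL tube) in LAPT-g medium at pH 6.5, containing 1% α-methyl-D-glucoside plus nitrogen compound at 0.1-1% w/v, in duplicate. After 36 h anaerobic incubation at 37 °C, each species was counted by selective plating (MRS anaerobic, TSA aerobic), and the L. crispatus:E. coli ratio and final pH were recorded.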

Data set [3] in a line: Solubility screening of the composition (visual precipitates or turbidity). It counts as physicochemical. The following applies: for Solubility of the composition, 0.50%: nitrogen compound 0.50 wt/vol % with 1.0 wt/vol % α methyl-D glucoside in medium; for Solubility of the composition, 1.00%: nitrogen compound 1.00 wt/vol % with 1.0 wt/vol % α methyl-D glucoside in medium. An excerpt:
Each composition in Table 1 went through initial screening measures of solubility and initial pH (“I pH”). […] When a specific concentration of a nitrogen containing compound was insoluble, the initial and final pH (“F pH”) of the combined composition was not measured and accordingly are each marked as “NM.” Additionally, initial pH of the composition was checked as a screening measure. The initial pH was marked as either Low (“L”), High (“H”), or Pass (“P”). A Low initial pH corresponds to an initial pH being less than 5.5, a High initial pH corresponds to an initial pH being greater than 6.5, and a Pass initial pH corresponds to the pH being at or between 5.5-6.5. […] As part of the Therapeutic Effect Protocol, a final pH was also measured after the compositions that were tested against the Lactobacillus and E. coli.
All of the ingredients in Table 2 were combined and the pH was adjusted to 6.5. […] To evaluate the effect of various nitrogen containing therapeutic agents on the growth of bacteria, the LAPT-g media, prepared as described above, was supplemented with various nitrogen containing compound therapeutic agents to a final test concentration between 0.1 and 1.0%. As initial screening measures, solubility and initial pH of each composition were checked. If a specific composition was insoluble (as detected by visual indication of precipitates or turbidity), then no further therapeutic efficacy testing was undertaken on that composition. Additionally, if the initial pH of the composition was below 5.5 (“Low”) or was above 6.5 (“High”), then no further therapeutic efficacy testing was undertaken on that composition.

Setting [4] is: 36 hours anaerobic co-culture, 37° C.

In the case of `N[C@@H](Cc1ccccc1)C(=O)O` [L-Phenylalanine], the “I pH (initial pH), 0.10%” value in data set [1] is listed as “P (a Pass initial pH corresponds to the pH being at or between 5.5-6.5)”. Besides, the “Therapeutic Efficacy Results (Lactobacillus/E. coli) 0.10%” value in data set [2] (setting [4]) came to 0.09. Moreover, in data set [3], the “Solubility of the composition, 0.50%” value is listed as “Insol” and the “Solubility of the composition, 1.00%” value is listed as “Insol”.

In the case of `Nc1ncnc2c1ncn2[C@@H]1O[C@H](CO)[C@@H](O)[C@H]1O` [Adenosine], in data set [1], the “I pH (initial pH), 0.10%” value is “P (a Pass initial pH corresponds to the pH being at or between 5.5-6.5)” and the “I pH (initial pH), 0.50%” value is given as “P (a Pass initial pH corresponds to the pH being at or between 5.5-6.5)”. Further, in data set [2] (setting [4]), the “Therapeutic Efficacy Results (Lactobacillus/E. coli) 0.10%” value is given as below 100 and the “Therapeutic Efficacy Results (Lactobacillus/E. coli) 0.50%” value is 0.97. Moreover, in data set [2] (with α methyl-D glucoside), the “Therapeutic effect when ratio α methyl-D glucoside : nitrogen compound is at least about 2:1, but not at 1:1” value is recorded as “provided a therapeutic effect”. Also, in data set [3], the “Solubility of the composition, 1.00%” value is “Insol”.

As for `NC(=O)C[C@H](N)C(=O)O` [L-Asparagine], in data set [1], the “I pH (initial pH), 0.10%” value was “P (a Pass initial pH corresponds to the pH being at or between 5.5-6.5)” and the “I pH (initial pH), 0.50%” value is listed as “P (a Pass initial pH corresponds to the pH being at or between 5.5-6.5)”. Further, in data set [2] (setting [4]), the “Therapeutic Efficacy Results (Lactobacillus/E. coli) 0.10%” value turned out to be 1.12 and the “Therapeutic Efficacy Results (Lactobacillus/E. coli) 0.50%” value amounted to 1.72. Besides, the “Solubility of the composition, 1.00%” value in data set [3] was “Insol”.

On to `CC(C)C[C@H](N)C(=O)O` [L-Leucine], for which, in data set [1], the “I pH (initial pH), 0.10%” value is “P (a Pass initial pH corresponds to the pH being at or between 5.5-6.5)” and the “I pH (initial pH), 0.50%” value is reported as “P (a Pass initial pH corresponds to the pH being at or between 5.5-6.5)”. Further, in data set [2] (setting [4]), the “Therapeutic Efficacy Results (Lactobacillus/E. coli) 0.10%” value came out at 2.9 and the “Therapeutic Efficacy Results (Lactobacillus/E. coli) 0.50%” value is 0.24. Also, the “Therapeutic effect when ratio α methyl-D glucoside : nitrogen compound is at least about 2:1, but not at 1:1” value in data set [2] (with α methyl-D glucoside) is reported as “provided a therapeutic effect”. Moreover, in data set [3], the “Solubility of the composition, 1.00%” value was “Insol”.

Take `CC[C@H](C)[C@H](N)C(=O)O` [L-Isoleucine]: the “I pH (initial pH), 0.10%” value in data set [1] is on record as “P (a Pass initial pH corresponds to the pH being at or between 5.5-6.5)”. The “Therapeutic Efficacy Results (Lactobacillus/E. coli) 0.10%” value in data set [2] (setting [4]) worked out at 1.51. In addition, in data set [3], the “Solubility of the composition, 0.50%” value was “Insol” and the “Solubility of the composition, 1.00%” value is listed as “Insol”.

Turning to `N[C@@H](Cc1c[nH]cn1)C(=O)O` [L-Histidine], the “I pH (initial pH), 0.10%” value in data set [1] is reported as “P (a Pass initial pH corresponds to the pH being at or between 5.5-6.5)”. The “Therapeutic Efficacy Results (Lactobacillus/E. coli) 0.10%” value in data set [2] (setting [4]) is 1.11. In addition, in data set [3], the “Solubility of the composition, 0.50%” value is recorded as “Insol” and the “Solubility of the composition, 1.00%” value is on record as “Insol”.

For the compound `NC(=O)NC1NC(=O)NC1=O` (centres unmarked) [Allantoin], in data set [1], the “I pH (initial pH), 0.10%” value is reported as “P (a Pass initial pH corresponds to the pH being at or between 5.5-6.5)” and the “I pH (initial pH), 0.50%” value is given as “P (a Pass initial pH corresponds to the pH being at or between 5.5-6.5)”. Further, in data set [2] (setting [4]), the “Therapeutic Efficacy Results (Lactobacillus/E. coli) 0.10%” value stood at 0.9 and the “Therapeutic Efficacy Results (Lactobacillus/E. coli) 0.50%” value is recorded as 1.37. Moreover, in data set [3], the “Solubility of the composition, 1.00%” value is recorded as “Insol”.

With `Nc1ncnc2nc[nH]c12` [Adenine], the “Solubility of the composition, 0.10%” value in data set [3] (nitrogen compound 0.10 wt/vol % with 1.0 wt/vol % α methyl-D glucoside in medium) is recorded as “Insol”. Moreover, in data set [3], the “Solubility of the composition, 0.50%” value is listed as “Insol” and the “Solubility of the composition, 1.00%” value is “Insol”.

Consider `O=c1cc[nH]c(=O)[nH]1` [Uracil], for which the “I pH (initial pH), 0.10%” value in data set [1] is “P (a Pass initial pH corresponds to the pH being at or between 5.5-6.5)”. The “Therapeutic Efficacy Results (Lactobacillus/E. coli) 0.10%” value in data set [2] (setting [4]) came to 0.43. In data set [3], the “Solubility of the composition, 0.50%” value is reported as “Insol” and the “Solubility of the composition, 1.00%” value is reported as “Insol”.

On to `N[C@@H](Cc1c[nH]c2ccccc12)C(=O)O` [L-Tryptophan], for which, in data set [1], the “I pH (initial pH), 0.10%” value is “P (a Pass initial pH corresponds to the pH being at or between 5.5-6.5)” and the “I pH (initial pH), 0.50%” value is given as “P (a Pass initial pH corresponds to the pH being at or between 5.5-6.5)”. Moreover, in data set [2] (setting [4]), the “Therapeutic Efficacy Results (Lactobacillus/E. coli) 0.10%” value was 0.66 and the “Therapeutic Efficacy Results (Lactobacillus/E. coli) 0.50%” value is reported as 0.06. Also, the “Solubility of the composition, 1.00%” value in data set [3] is “Insol”.

With `Cl.NCCC[C@H](N)C(=O)O` [L-Ornthine], in data set [1], the “I pH (initial pH), 0.10%” value is on record as “P (a Pass initial pH corresponds to the pH being at or between 5.5-6.5)” and the “I pH (initial pH), 0.50%” value is on record as “P (a Pass initial pH corresponds to the pH being at or between 5.5-6.5)”. In addition, in data set [1] (nitrogen compound 1.00 wt/vol % with 1.0 wt/vol % α methyl-D glucoside in medium), the “I pH (initial pH), 1.00%” value is on record as “P (a Pass initial pH corresponds to the pH being at or between 5.5-6.5)”. In data set [2] (setting [4]), the “Therapeutic Efficacy Results (Lactobacillus/E. coli) 0.10%” value is recorded as 1.31 and the “Therapeutic Efficacy Results (Lactobacillus/E. coli) 0.50%” value is reported as 1.24. Also, in data set [2] (nitrogen compound 1.00 wt/vol % with 1.0 wt/vol % α methyl-D glucoside (1:1), 36 hours anaerobic co-culture, 37° C.), the “Therapeutic Efficacy Results (Lactobacillus/E. coli) 1.00%” value is on record as 3.97. Further, the “Therapeutic effect when ratio α methyl-D glucoside : nitrogen compound is less than 2:1 (1:1)” value in data set [2] (with α methyl-D glucoside, ratio 1:1) was “provided a therapeutic effect”.

These data come from US12029748B2, “Synergistic composition for maintenance of healthy balance of microflora” (KIMBERLY-CLARK WORLDWIDE, INC., priority 2017, dated 2024).
